Assay results taken from patent US20220193163A1, “COMPOSITION COMPRISING ACTINIDIA POLYGAMA EXTRACT FOR ALLEVIATING SKIN DAMAGE OR MOISTURIZING SKIN” (G&P BIOSCIENCE CO., LTD., priority 2019, published 2022).

Key:
[1] = DPPH radical-scavenging ability; format: biochemical
Method: DPPH [[…]] is a free-radical compound. […] Accordingly, antioxidant activity can be compared from the ratio of decolorized DPPH radicals. After mixing 50 μL of a 0.36 mM DPPH solution and 50 μL of a test substance dissolved in ethanol at 1:1 and conducting reaction at room temperature in the dark for 30 minutes, absorbance was measured at 540 nm. The DPPH radical-scavenging ability of Example 1, Comparative Example 1 and Comparative Example 2 of different darae species at different concentrations was calculated from the measured absorbance.

[2] = ABTS radical-scavenging ability; format: biochemical
Method: After dissolving 7.4 mM 2,2-azino-bis(3-ethylbenzthiazoline-6-sulfonic acid) and 2.6 mM potassium persulfate respectively in distilled water and mixing at 1:1, ABTS^+ is formed by conducting reaction at room temperature in the dark for 24 hours. 24 hours later, the ABTS solution was diluted to purified water to adjust absorbance at 732 nm to 0.7. Then, after adding 10 μL of a test substance to 190 μL of the ABTS solution and conducting reaction in the dark for 10 minutes, absorbance was measured at 732 nm. The ABTS radical-scavenging ability of Example 1, Comparative Example 1 and Comparative Example 2 of different darae species at different concentrations was calculated from the measured absorbance.

Row | DPPH radical-scavenging ability IC50 [1] | ABTS radical-scavenging ability IC50 [2] | SMILES
1 | 30 ± 10 µg/mL | – | O=C1O[C@H]([C@@H](O)CO)C(O)=C1O [L-Ascorbic acid]
2 | – | 100 ± 10 µg/mL | Cc1c(C)c2c(c(C)c1O)CCC(C)(C(=O)O)O2 (centres unmarked) [Trolox]
